In PMC12415213, “A genome-scale drug discovery pipeline uncovers therapeutic targets and a unique p97 allosteric binding site in Schistosoma mansoni” (Proceedings of the National Academy of Sciences of the …, 2025):
Like-named read-outs stand apart in the source and are kept apart here.

Key:
adult S. mansoni [1] = assay: Dose-response of compounds on adult worms (attachment to culture substrate, EC50); type: cell-based, Schistosoma mansoni
Method: (§1) DMSO). All selected compounds were obtained from commercial vendors (Medchemexpress, Selleck Chemicals, Sigma-Aldrich, ApexBio, Tocris, Santa Cruz Biotechnology, and Cayman Chemical Company) (Dataset S4) with […]
the activity of the desired compounds. Roughly 5 adult worm pairs were placed in 3mL Basch medium in a 12-well culture vessel, and incubated at 37° C, 5% CO2 for the length of the experiment. Compound was administered at D0, D1, and D2, media and drug refreshed every 24 hr. Worms were then allowed to remain in culture until D5, where a final assessment of worm attachment to tissue culture substate was made by light microscopy.
Observations on movement and morphology were also recorded. A negative control (0.1% DMSO) and positive control (PZQ; 10 µM in 0.1% DMSO) were included in each experiment, and each experiment was repeated in triplicate for validation. For compounds that caused complete detachment in replicate experiments, the treatment was expanded to three concentrations (10 µM, 5 µM, and 1 µM) following the same treatment schedule and controls as detailed above.
Each titration experiment was performed in triplicate according to the treatment regimen described above, using DMSO and PZQ as appropriate controls. Morphologies and motility were assessed by light microscopy, and dose-response curves were calculated using the primary readout of parasite attachment to tissue culture substrate in GraphPad Prism.
(§2) For drug treatment studies, 10 male adult worms (single or paired with females) were supplemented with either 0.1% DMSO or inhibitor (0.1% DMSO final). For all experiments assessing on-target effects of potential parasite […]
(§3) After 48 hr, male parasites were separated […]
(§4) further processing. Male worm samples were homogenized with a pestle in 50 µL lysis buffer containing 2X […]
(Roche, cOmplete Mini, EDTA-free Tablets) and 10 mM DTT. The lysates were then sonicated on high for 5 min (30 sec on, 30 sec off) using a Bioruptor UCD-200. […]
Compounds were tested from 100 μM – 1 nM. Values were calculated using Prism.

[2] = tested on: K48 polyubiquitinated proteins in adult S. mansoni; assay: Western blot of K48 polyubiquitinated proteins in lysate of drug-treated worms; type: cell-based, Schistosoma mansoni; details: adult worm lysate after 48 h of treatment
Method: as §1
the activity of the desired compounds. Roughly 5 adult worm pairs were placed in 3mL Basch medium in a 12-well culture vessel, and incubated at 37° C, 5% CO2 for the length of the experiment. […]
as §2, §3, §4
(Roche, cOmplete Mini, EDTA-free Tablets) and 10 mM DTT. The lysates were then sonicated on high for 5 min (30 sec on, 30 sec off) using a Bioruptor UCD-200. Lysates were centrifuged for 5 min at 10,000 g to remove […]
debris. Total protein was measured using the Detergent Compatible Bradford Assay (Pierce). 50 µg of protein samples denatured in SDS Sample buffer (95°C for 5 min) were separated on a Bio-Rad 4-20% TGX Stain-Free gel along with Precision Plus Protein Dual Color Standards (Bio-Rad) as a marker. Proteins were then transferred to a nitrocellulose membrane (Bio-Rad). The membrane was blocked in a 1:5 solution of Li-Cor Odyssey Blocking buffer in PBST for 1 hr before being immunoblotted overnight at 4°C with 1:500 K48-linkage Specific […]
(1:10,000) (Developmental Studies Hybridoma Bank, JLA20) diluted in a 1:5 solution of Li-Cor Odyssey Blocking buffer in PBST. The membrane was washed 3x in TBST and then incubated in 1:5 Li-Cor Odyssey […]
in TBST 3x before being imaged on a LiCor Odyssey Infrared Imager. […]

HepG2 cells = assay: HepG2 cytotoxicity assay (Cell Titer Glo 2.0); type: cell-based, Homo sapiens; details: 72 h
adult S. mansoni [3] = tested on: adult S. mansoni; design: method as in PMID 32973031; details: adult parasites; cited from earlier work
[4] = target: S. mansoni p97 (Smp_018240) (Schistosoma mansoni, UniProt G4M0P7); type: biochemical; details: recombinant full-length enzyme, Kinase-Glo, 100 μM to 1 nM
S. mansoni p97 (Smp_018240), sequence (G4M0P7 entry or part of it): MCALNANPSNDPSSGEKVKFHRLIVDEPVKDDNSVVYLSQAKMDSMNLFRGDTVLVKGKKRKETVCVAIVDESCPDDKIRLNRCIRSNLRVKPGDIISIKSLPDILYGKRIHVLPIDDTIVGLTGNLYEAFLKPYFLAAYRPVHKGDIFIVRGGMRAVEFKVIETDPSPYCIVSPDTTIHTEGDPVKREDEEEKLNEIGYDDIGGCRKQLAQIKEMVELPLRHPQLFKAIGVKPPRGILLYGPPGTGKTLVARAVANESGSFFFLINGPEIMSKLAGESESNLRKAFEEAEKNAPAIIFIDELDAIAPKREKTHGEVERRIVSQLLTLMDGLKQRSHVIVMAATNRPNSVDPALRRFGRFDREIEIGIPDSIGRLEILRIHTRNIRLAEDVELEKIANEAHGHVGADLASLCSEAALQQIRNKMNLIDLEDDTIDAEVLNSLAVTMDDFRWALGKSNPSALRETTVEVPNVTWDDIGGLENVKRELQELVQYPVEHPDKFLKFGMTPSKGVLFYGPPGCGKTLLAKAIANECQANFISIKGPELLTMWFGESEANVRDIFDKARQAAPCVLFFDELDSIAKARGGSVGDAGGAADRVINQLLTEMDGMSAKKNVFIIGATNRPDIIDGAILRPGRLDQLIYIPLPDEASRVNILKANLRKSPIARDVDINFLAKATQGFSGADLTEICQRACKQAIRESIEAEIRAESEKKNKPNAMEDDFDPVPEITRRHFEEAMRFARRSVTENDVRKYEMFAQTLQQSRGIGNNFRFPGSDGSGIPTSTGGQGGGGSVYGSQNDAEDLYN
Method: Evaluation of p97’s ATPase activity and compound potency
For manual ATP consumption assays, 1 µM p97 was incubated with 1% DMSO or inhibitor (1% DMSO final) in assay buffer [50 mM Tris (pH 7.5), 20 mM MgCl2, 1 mM EDTA, 0.5 mM tris(2-carboxyethyl)phosphine (TCEP)] for 5 minutes prior to the addition of 20 µM ATP in a 384-well plate for a total reaction volume of 10 µL, and a final concentration of 500nM enzyme and 10 µM ATP. The reaction was allowed to proceed for 50 minutes at room temperature before adding equivalent volume of Kinase-Glo Plus reagent (Promega), and a further incubation of 10 minutes in the dark. Luminescence was read using a BioTek Synergy 2 plate reader […]
1 μM, 500 nM, 100 nM, 50 nM, 10 nM, 5 nM, 1 nM, and 0 nM) in triplicate, maintaining a concentration of 1% […]
were calculated using GraphPad Prism. […]

In the case of AGI-41998, the EC50 (adult S. mansoni [1]; adult worms in vitro, tested 50 μM to 10 nM, readout attachment to culture substrate, read-out: EC50 of commercial inhibitors of human orthologs on adult parasites) is reported as 0.71 µM.
With `Cc1cc2c(C(N)=O)cccc2n1-c1nc2c(c(NCc3ccccc3)n1)COCC2` [CB-5083] the EC50 (adult S. mansoni [1]; fraction of worms attached after 72 h drug treatment, refreshed every 24 h, kept until D5, 50 μM - 10 nM, read-out: S. mansoni EC50 (μM) on adult parasites) was 0.36 µM, the “accumulation of K48 polyubiquitinated proteins by western blot” value [2] was “accumulation of proteins targeted for proteasome-mediated degradation” and the GI50 (HepG2 cells; 50% growth inhibition normalized to time = 0) was 0.31 µM. For the same compound, the IC50 (HepG2 cells; 50% growth inhibition relative to control) was 0.41 µM and the “concentration leading to parasite death in vitro” value (adult S. mansoni [3]) was “submicromolar concentrations”.
Work on AG-270 yielded an EC50 (adult S. mansoni [1]; read-out: EC50 of commercial inhibitors of human orthologs on adult parasites) of 0.18 µM.
In the case of `Cc1cc(OCc2nnc(SC3CCCC3)n2-c2cccnc2)ccc1-c1ccc(S(C)(=O)=O)cc1` [NMS-873], the “accumulation of K48 polyubiquitinated proteins by western blot” value [2] is given as “accumulation of proteins targeted for proteasome-mediated degradation”, the “concentration leading to parasite death in vitro” value (adult S. mansoni [3]) is given as “submicromolar concentrations” and the IC50 [4] is given as 0.23 ± 0.075 µM.
